The source of these data is patent EP1943275B1, “INSULINOTROPIC COMPOUNDS AND USES THEREOF” (Activotec SPP Limited, priority 2005, dated 2010).

For data set [1] the following is noted: active form of GLP-1; DPP IV cleavage between Ala8 and Glu9; cited from earlier work.
For a further data set, the system named is DPP-IV. In words: Dipeptidyl peptidase IV (DPP-IV) assays (Example 10): DPP-IV digestion monitored by RP-HPLC. The data set is classed as in vitro ADME. The following applies: PBS/TEthA, pH 7.5, 37°.
Data set [2] can be described thus: Control study: chemical stability in PBS/triethanolamine solution in the absence of DPP-IV. The settings on record: no DPP-IV; for percentage of each analogue remaining: PBS/TEthA, pH 7.5, 37°. It counts as physicochemical. The protocol: In the control study, peptides were incubated with PBS/triethanolamine solution in the absence of DPP-IV to measure their chemical stability.

The subject of a further data set is dipeptidyl peptidase IV. In words: DPP-IV assay (Example 5): hydrolysis followed by HPLC and ES-MS. It counts as in vitro ADME. The settings on record: After 18 hr incubation, 37°C, 50 mM triethanolamine buffer, pH 7.8, 11 milliunits DPP-IV. The protocol:
Biological Chemistry. 385, pp 169-177.
Briefly, 100 - 200 microgams of each peptide was dissolved in 0.5 ml of 50 mM triethanolamine buffer, pH 7.8. To this was added a 10 microlitre solution of 11 milliunits DPP-IV (Sigma) and the solutions incubated at 37°C for up to 42 hours. […] The incubations were terminated by addition of 5 microlitres TFA to each tube and 50 microlitre of each were injected onto a reversed phase 4.6 x 250 mm C18 HPLC column, eluting a gradient of 20% - 45% acetonitrile in 0.1 % TFA/water over 25 minutes. […] After 42 hours, the 2 analogues slowly degraded to a product that gave a mass spectrum consistent with the mass of the 9-37 sequence, indicating longer term instability of the urea bond. This represented as much as 15% of the product by HPLC. This degradation appeared to be non-DPP-IV related, since samples without enzyme gave the same profile.

Ends that are not written are not given here.

As for `CC[C@H](C)[C@H](NC(=O)[C@H](Cc1ccccc1)NC(=O)[C@H](CCC(=O)O)NC(=O)[C@H](CCCCN)NC(=O)[C@H](C)NC(=O)[C@H](C)NC(=O)[C@H](CCC(N)=O)NC(=O)CNC(=O)[C@H](CCC(=O)O)NC(=O)[C@H](CC(C)C)NC(=O)[C@H](Cc1ccc(O)cc1)NC(=O)[C@H](CO)NC(=O)[C@H](CO)NC(=O)[C@@H](NC(=O)[C@H](CC(=O)O)NC(=O)[C@H](CO)NC(=O)[C@@H](NC(=O)[C@H](Cc1ccccc1)NC(=O)[C@@H](NC(=O)CNC(=O)[C@H](CCC(=O)O)NC(=O)[C@H](C)NC(=O)[C@@H](N)Cc1c[nH]cn1)[C@@H](C)O)[C@@H](C)O)C(C)C)C(=O)N[C@@H](C)C(=O)N[C@@H](Cc1c[nH]c2ccccc12)C(=O)N[C@@H](CC(C)C)C(=O)N[C@H](C(=O)N[C@@H](CCCCN)C(=O)NCC(=O)N[C@@H](CCCN=C(N)N)C(=O)NCC(=O)O)C(C)C` [Native GLP-1 7-37, glucagon-like peptide-1 (7-37)], in data set [1], the circulating half-life result is “less than 2 minutes”.
As for `CC[C@H](C)[C@H](NC(=O)[C@H](Cc1ccccc1)NC(=O)[C@H](CCC(=O)O)NC(=O)[C@H](CCCCN)NC(=O)[C@H](C)NC(=O)[C@H](C)NC(=O)[C@H](CCC(N)=O)NC(=O)CNC(=O)[C@H](CCC(=O)O)NC(=O)[C@H](CC(C)C)NC(=O)[C@H](Cc1ccc(O)cc1)NC(=O)[C@H](CO)NC(=O)[C@H](CO)NC(=O)[C@@H](NC(=O)[C@H](CC(=O)O)NC(=O)[C@H](CO)NC(=O)[C@@H](NC(=O)[C@H](Cc1ccccc1)NC(=O)[C@@H](NC(=O)CNC(=O)[C@H](CCC(=O)O)NC(=O)[C@H](C)NNC(=O)[C@@H](N)Cc1c[nH]cn1)[C@@H](C)O)[C@@H](C)O)C(C)C)C(=O)N[C@@H](C)C(=O)N[C@@H](Cc1c[nH]c2ccccc12)C(=O)N[C@@H](CC(C)C)C(=O)N[C@H](C(=O)N[C@@H](CCCCN)C(=O)NCC(=O)N[C@@H](CCCNC(=N)N)C(=O)NCC(=O)O)C(C)C` [SP008, L-His-NH-NH-CH(CH3)-C(O)-Glu9-37], the “percentage of each analogue remaining” value was 95% in the data set with DPP-IV (Time 0 hr), 95% in the data set with DPP-IV (Time 22 hr) and 98% in data set [2] (Time 0 hr). The non-enzymatic degradation in data set [2] (after 47 hr, by HPLC) is reported as 20-25%.
With `CC[C@H](C)[C@H](NC(=O)[C@H](Cc1ccccc1)NC(=O)[C@H](CCC(=O)O)NC(=O)[C@H](CCCCN)NC(=O)[C@H](C)NC(=O)[C@H](C)NC(=O)[C@H](CCC(N)=O)NC(=O)CNC(=O)[C@H](CCC(=O)O)NC(=O)[C@H](CC(C)C)NC(=O)[C@H](Cc1ccc(O)cc1)NC(=O)[C@H](CO)NC(=O)[C@H](CO)NC(=O)[C@@H](NC(=O)[C@H](CC(=O)O)NC(=O)[C@H](CO)NC(=O)[C@@H](NC(=O)[C@H](Cc1ccccc1)NC(=O)[C@@H](NC(=O)CNC(=O)[C@H](CCC(=O)O)NC(=O)CONC[C@H](C)NC(=O)[C@@H](N)Cc1c[nH]cn1)[C@@H](C)O)[C@@H](C)O)C(C)C)C(=O)N[C@@H](C)C(=O)N[C@@H](Cc1c[nH]c2ccccc12)C(=O)N[C@@H](CC(C)C)C(=O)N[C@H](C(=O)N[C@@H](CCCCN)C(=O)NCC(=O)N[C@@H](CCCNC(=N)N)C(=O)NCC(=O)O)C(C)C` [SP005], the “percentage of each analogue remaining” value came out at 95% with DPP-IV (Time 0 hr), 95% in the data set on DPP-IV (Time 22 hr), 98% in data set [2] (Time 0 hr) and 95% in data set [2] (Time 22 hr).
On to `CC[C@H](C)[C@H](NC(=O)[C@H](Cc1ccccc1)NC(=O)[C@H](CCC(=O)O)NC(=O)[C@H](CCCCN)NC(=O)[C@H](C)NC(=O)[C@H](C)NC(=O)[C@H](CCC(N)=O)NC(=O)CNC(=O)[C@H](CCC(=O)O)NC(=O)[C@H](CC(C)C)NC(=O)[C@H](Cc1ccc(O)cc1)NC(=O)[C@H](CO)NC(=O)[C@H](CO)NC(=O)[C@@H](NC(=O)[C@H](CC(=O)O)NC(=O)[C@H](CO)NC(=O)[C@@H](NC(=O)[C@H](Cc1ccccc1)NC(=O)[C@@H](NC(=O)CNC(=O)[C@H](CCC(=O)O)NC(=O)CNNC(=O)[C@@H](N)Cc1c[nH]cn1)[C@@H](C)O)[C@@H](C)O)C(C)C)C(=O)N[C@@H](C)C(=O)N[C@@H](Cc1c[nH]c2ccccc12)C(=O)N[C@@H](CC(C)C)C(=O)N[C@H](C(=O)N[C@@H](CCCCN)C(=O)NCC(=O)N[C@@H](CCCNC(=N)N)C(=O)NCC(=O)O)C(C)C` [SP006, L-His-NH-NH-CH2-C(O)-Glu9-37], for which the figures for the “percentage of each analogue remaining” value (in the data set with DPP-IV (Time 0 hr); in data set [2] (Time 0 hr)) were 95% and 98%, respectively.
With HAEGTFTSDVSSYLEG [GLP-1 7-22], in the data set on dipeptidyl peptidase IV, the “cleavage of the N terminal dipeptide by DPP-IV” value is “completely cleaved”.
Regarding `CC[C@H](C)[C@H](NC(=O)[C@H](Cc1ccccc1)NC(=O)[C@H](CCC(=O)O)NC(=O)[C@H](CCCCN)NC(=O)[C@H](C)NC(=O)[C@H](C)NC(=O)[C@H](CCC(N)=O)NC(=O)CNC(=O)[C@H](CCC(=O)O)NC(=O)[C@H](CC(C)C)NC(=O)[C@H](Cc1ccc(O)cc1)NC(=O)[C@H](CO)NC(=O)[C@H](CO)NC(=O)[C@@H](NC(=O)[C@H](CC(=O)O)NC(=O)[C@H](CO)NC(=O)[C@@H](NC(=O)[C@H](Cc1ccccc1)NC(=O)[C@@H](NC(=O)CNC(=O)[C@H](CCC(=O)O)NC(=O)CNNC(=O)[C@H](C)NC(=O)[C@@H](N)Cc1c[nH]cn1)[C@@H](C)O)[C@@H](C)O)C(C)C)C(=O)N[C@@H](C)C(=O)N[C@@H](Cc1c[nH]c2ccccc12)C(=O)N[C@@H](CC(C)C)C(=O)N[C@H](C(=O)N[C@@H](CCCCN)C(=O)NCC(=O)N[C@@H](CCCNC(=N)N)C(=O)NCC(=O)O)C(C)C` [SP007, L-His-L-Ala-NH-NH-CH2-C(O)-Glu9-37], the “percentage of each analogue remaining” value is recorded as 95% in the data set with DPP-IV (Time 0 hr); under 5% with DPP-IV (Time 22 hr); 98% in data set [2] (Time 0 hr); 95% in data set [2] (Time 22 hr); 95% in data set [2] (Time 47 hr).
